Reference: patent publication US4132738A, “Preparation of 15-deoxy-16-hydroxyprostaglandins” (Miles Laboratories, Inc., priority 1978, dated 1979)

Experiments:
Conditions in all cases: comparison in words
[1] = system: rat stomach, rat colon, chick rectum, and rabbit aorta; test: Cascade assay, all four tissues; format: cell-based
Description: (§1) The smooth muscle stimulant effects of the test compounds were determined simultaneously in four different tissues that are known to be reactive to naturally occurring prostaglandins. Segments of rat stomach fundus, rat colon, chick rectum and rabbit aortic strip were obtained as described by: Vane, J. R., Brit. J. Pharmacol., 12: 344 (1957); Regoli, D. and Vane, J. R., Brit. J. Pharmacol., 23: 351 (1964); Mann, M. and West, G. B., Brit. J. Pharmacol., 5: 173 (1950); and Furchgott, R. F. and Bhadrakom, R., J. Pharmacol. Exper. Ther., 108: 129 (1953). One end of each preparation was tied to the bottom of a 10 ml tissue chamber and the other to a force displacement transducer (Grass FT-03) for continuous tension recording. The stomach, colon, and rectum segments were stretched to an initial tension of 1 g, while the aortic strip was subjected to 4 g. All preparations were left undisturbed for 1 hour prior to ptesting. The chambers were equipped with an external jacket through which water, maintained at 40° C., was circulated. […]
(§2) Test compounds were diluted from stock solutions so as to administer quantities ranging from 0.0001 to 100,000 ng in a volume of 0.5 ml. […] Maximal increases in tension after each dose were measured and the results were used to plot dose-response curves. […]
(§3) Activity in each tissue was scored according to the following scale: […]

[2] = system: blood pressure and heart rate in the anesthetized cat; test: Effects on blood pressure and heart rate in the anesthetized cat; format: in vivo
Description: The acute effects of test compounds on blood pressure and heart rate were determined in cats of either sex anesthetized with a mixture of pentobarbital sodium (35 mg/kg, i.v.) and barbital sodium (100 mg/kg, i.v.). Cannulas were placed in the trachea to allow adequate spontaneous ventilation, in a femoral artery for blood pressure recording with a strain gage transducer, and in a saphenous vein for drug administration.
Heart rate was recorded by means of a cardiotachometer driven by the R wave of the electrocardiogram. After a period of 10 minutes of stable recordings of blood pressure and heart rate, the test compound was administered intravenously at doses increasing from 0.01 to 10.0 mcg/kg, spaced one log and injected at 10 minute intervals. All doses were injected in a volume of 0.1 ml/kg. Modifications of blood pressure and heart rate induced by the test compound were expressed both in absolute units (mmHg and beats/minute) and as percent of values recorded immediately before administration of each dose. Biphasic responses were tabulated in the order in which they occurred. […]
Activity of compounds in this test was judged only on the basis of the degree of hypotension observed. Thus, the ED50 mmHg (dose decreasing blood pressure by 50 mmHg) was calculated graphically, and the compound scored according to the following scale: […]

rat stomach = test: Cascade assay, rat stomach fundus in vitro; format: cell-based
Description: as §1, §2, §3

rat colon = test: Cascade assay, rat colon in vitro; format: cell-based
Description: as §1, §2, §3

| SMILES | Cascade values, methyl ester versus carbinol [1] | Feline blood pressure and heart rate value, methyl ester versus carbinol [2] | Cascade stomache value, methyl ester versus carbinol (rat stomach) | Cascade colon value, methyl ester versus carbinol (rat colon) |
| --- | --- | --- | --- | --- |
| CCCCC(C)(O)C/C=C/[C@H]1[C@H](O)CC(=O)[C@@H]1CCCCCCC(=O)OC (stereo partly drawn) [TR 4704, Methyl 11α, 16RS-dihydroxy-16-methyl-9-oxoprost-13E-oate, reference compound] | significantly and undesirably higher | significantly and undesirably higher | – | – |
| CCCCC(O)C/C=C/[C@H]1[C@H](O)CC(=O)[C@@H]1CCCCCCC(=O)OC (stereo partly drawn) [TR 4705, Methyl 11α, 16RS-dihydroxy-9-oxoprost-13E-en-1-oate, reference compound] | – | – | higher | higher |
